Measured values reported in PMC9654784, “Targeting SARS-CoV-2 nsp13 Helicase and Assessment of Druggability Pockets: Identification of Two Potent Inhibitors by a Multi-Site In Silico Drug Repurposing Approach” (Molecules, 2022).

Experiments:
SARS-CoV-2 nsp13 [1] = target: T1, SARS-CoV-2 nsp13 (Severe acute respiratory syndrome coronavirus 2, UniProt P0DTD1); test: SARS-CoV-2 nsp13 ATPase (NTPase)-associated activity; format: biochemical; settings: for Percentage of control, NTPase activity: measured in the presence of the highest tested compound concentration
Method: (§1) The SARS-CoV-2 nsp13 his-tagged was expressed in E. coli BL21 Rosetta 2 cells from a pNIC-ZB (addgene #159614). A purification protocol was adopted from Newman et al.. Terrific Broth media was used to culture the cells at 37 °C and at 200 rpm until 1.6 OD600. Then, protein expression was induced with […] for 16 h at 18 °C, at 200 rpm, and then pelleted and resuspended in lysis buffer (50 mM HEPES pH 7.5, 500 mM NaCl, 5% Glycerol, 10 mM Imidazole, 0.5 mM TCEP, Merck Protease inhibitor cocktail III, 1:500). After sonication and clarification at 15,000× g for 30 min, the crude extract was used for a batch binding of 40 min in a three-dimensional rotating mixer with 5 mL of Ni-sepharose (cytiva) under orbital. Then, the tubes were centrifuged at 700× g at 4 °C for 5 min, and the resin was loaded onto a gravity flow column (econo column BioRad) connected to a BioLogic LP (BioRad). It was subsequently washed (1 mL/min) with a lysis buffer for 40 min and with a wash buffer (50 mM HEPES pH 7.5, 500 mM NaCl, 5% Glycerol, 45 mM Imidazole, 0.5 mM TCEP) for 25 min. A further 10 min wash with a Hi-salt buffer (50 mM HEPES pH 7.5, 1 M NaCl, 5% Glycerol, 0.5 mM TCEP) was performed, followed by another 10 min of wash buffer. Proteins were eluted with the addition of 15 mL of elution buffer (50 mM HEPES pH 7.5, 500 mM NaCl, 5% Glycerol, 300 mM Imidazole, 0.5 mM TCEP). The elution fraction was analyzed for purity by SDS page, and clean fractions were pooled and dialyzed against a desalting buffer containing 25 mM HEPES pH 7.5, 250 mM NaCl, 20% Glycerol, and 0.25 mM TCEP. Proteins were stored at −80 °C.
The SARS-CoV-2 nsp13 helicase-associated activity was measured in a transparent 96-well plate (PerkinElmer), as described in [34]. Briefly, the reaction mixture contained 20 mM Tris–HCl pH 7.2, 50 mM NaCl, 2 mM MgCl2, 10 µg/mL of BSA, 180 µM TCEP, 5% DMSO or inhibitor, and 25 nM of purified nsp13. The reaction was started by adding 400 µM ATP. Total reaction volume was 25 μL. Compound Licoflavone C was used as positive control of inhibition. The reaction lasted for 30 min at 37 °C. […] The products were measured with Victor Nivo (Perkin) at 650 nm.

SARS-CoV-2 nsp13 [2] = target: T1, SARS-CoV-2 nsp13; test: SARS-CoV-2 nsp13 unwinding-associated activity; format: biochemical; settings: for IC50: concentration required to inhibit nsp13-associated unwinding activity by 50%, 1 nM nsp13, 1 mM ATP, 750 nM DNA substrate; for Percentage of control, unwinding activity: measured in the presence of the highest tested compound concentration
Method: as §1
The SARS-CoV-2 nsp13 unwinding-associated activity was measured in black 384-well plates (PerkinElmer). The reaction mixture, as described in [34], contained 20 mM Tris–HCl pH 7.2. 50 mM NaCl, 2 mM MgCl2, 10 μg/mL of BSA, 180 μM TCEP, 2 μM Hel Capture oligo (5′- […] -3′) (Biomers) 5% DMSO or inhibitor, and 1 nM of purified nsp13. The enzyme was pre-incubated for 10 min with the inhibitor at room temperature, and then reaction was started by adding 1 mM ATP and 750 nM annealed DNA substrate (5′- […]-Cy3-3′. 5′- BHQ-2-[…]-3′) (Biomers). Reaction volume was 40 μL. Compounds SSYA10-001 and Licoflavone C were used as positive controls of inhibition; the reaction lasted for 15 min at 37 °C, and then the products were measured with Victor Nivo (Perkin) at 530/580 nm.

[3] = concentration required to inhibit nsp13-associated ATPase activity by 50%, 25 nM nsp13, 400 µM ATP

Row | Compound | IC50 (SARS-CoV-2 nsp13 [1]; [3]) [µM] | Percentage of control, NTPase activity (SARS-CoV-2 nsp13 [1]) [%] | IC50 (SARS-CoV-2 nsp13 [2]) [µM] | Percentage of control, unwinding activity (SARS-CoV-2 nsp13 [2]) [%] | IC50 NTPase (SARS-CoV-2 nsp13 [1]; [3])
1 | CCO/N=C(\C(=O)N[C@@H]1C(=O)N2C(C(=O)[O-])=C(Sc3nc(-c4cc[n+](C)cc4)cs3)CS[C@H]12)c1nsc(NP(=O)(O)O)n1 [Ceftaroline fosamil] | > 30 | 100 | > 30 | 100 | 
2 | CC(C)=CCc1c(O)cc(O)c2c(=O)cc(-c3ccc(O)cc3)oc12 [Licoflavone C] | 20.9 ± 0.8 |  | 8.7 ± 1.3 |  | 
3 | CC(C)(Cc1cccc(CC(=O)NCc2cccc(-c3ccc(O)cc3)c2)c1)NC[C@H](O)c1ccc(O)c(NS(C)(=O)=O)c1 [PF-00610355] | > 30 | 100 | 22.4 ± 1.7 |  | not active
4 | CC(C)(C)c1cc(NC(=O)NCc2ccccc2Sc2ccc3nnc(-c4ccccc4SCCO)n3c2)n(-c2ccc(O)c(Cl)c2)n1 [PF-03715455] | 9.26 ± 1.93 |  | 3.02 ± 0.21 |  | 
5 | OC[C@H]1O[C@@H](Oc2cc(O)cc(/C=C/c3ccc(O)cc3)c2)[C@H](O)[C@@H](O)[C@@H]1O [Polydatin] | > 30 | 100 | > 30 | 100 | 
6 | C=CCn1c(CSc2ccccc2[N+](=O)[O-])n[nH]c1=S [SSYA10-001] |  |  | 2.3 ± 0.7 |  | 
7 | nicotinamide adenine dinucleotide [NADH] |  | 100 |  | 100 | 
